In US6822146B2, “Sulfonylurea-tolerant sunflower line M7” (priority 2000, dated 2004):
Where two headings read alike, the source gives them in different places.

How the values were obtained:
[1] = system: Hybrid control: H89A × RHA274; type: in vivo, sunflower; conditions: variety A
Text: (§1) To generate the hybrids C, D and E, the fourth generation self-pollinated maintainer mutant lines M4M12, M4M11 and M4M7 were chemically sterilized by applying at the bud “star” flower stage a small amount of gibberellic acid solution to sterilize the pollen according to the general method described in Sunflower Science Technology, J. F. Carter ed. (Number 19 in the series “Agronomy”) pp. 339-386. This treatment enables maintainer plants to behave as CMS inbred lines and allows the production of heterozygous resistant hybrids, with the herbicide resistant source coming from the female side. Such crosses allowed evaluating the sexual effect of the mutation source when introduced on the female side of a cross as described in crosses C, D and E versus the male side of a cross as described in crosses F, G and H. Labels I, J and K identify third generation CMS mutant lines crossed with fourth generation maintainer lines to maintain the highly heritable mutant trait in a male sterile homozygous resistant environment. One skilled in sunflower breeding art understands the meaning of such crosses.
(§2) A rating of 0% phytotoxicity means no crop injury.

H89A × M4M11 = type: in vivo, sunflower; conditions: variety G
Text: as §1, §2

H89A × M4M12 = type: in vivo, sunflower; conditions: variety F
Text: as §1, §2

[2] = system: Inbred line control: H89A; type: in vivo, sunflower; conditions: variety B
Text: as §1, §2

H89A × M4M7 = type: in vivo, sunflower; conditions: variety H
Text: as §1, §2

'M11' = experiment: Tolerance of M11 to rimsulfuron; conditions: in vivo
[3] = system: acetolactate synthase (ALS) from M2E24; experiment: ALS activity remaining, M2E24 extract; type: biochemical, sunflower; conditions: mutant line selected with rimsulfuron, in the presence of rimsulfuron
M5M7 = experiment: Test B greenhouse phytotoxicity, M5M7; type: in vivo, sunflower; conditions: in vivo
Procedure: (§3) A greenhouse experiment was conducted to evaluate the spectrum of tolerance of three homozygous resistant mutants to various herbicides inhibiting acetolactate synthase (ALS) as their mode of action. The inbred lines tested were the 5th generation self-pollinated maintainers, M5M7, M5M11 and M5M12, as well as the 4th generation male sterile back-crosses BC4-M5M7, BC4-M5M11 and BC4-M5M12. Treatments of formulated herbicides were applied post-emergence at the 4-leaf stage. Application rates of the test herbicides were chosen to coincide with the rates commonly used in the crops for which they are registered. The application rate of imazethapyr was chosen to match the rate recommended to control parasitic weeds in sunflowers by L. García-Torres et al., Weed Technology 1995, 9, 819-824. Wild type H89 inbred sunflower was not included in this test, because the many of the tested herbicides are known to be efficacious in controlling volunteer sunflower as a weed. Treatments were replicated twice. […] A rating of 0% phytotoxicity means no crop injury.

M5M11 = experiment: Test B greenhouse phytotoxicity, M5M11; type: in vivo, sunflower; conditions: in vivo
Procedure: as §3

BC4-M5M7 = experiment: Test B greenhouse phytotoxicity, BC4-M5M7; type: in vivo, sunflower; conditions: in vivo
Procedure: as §3

BC4-M5M12 = experiment: Test B greenhouse phytotoxicity, BC4-M5M12; type: in vivo, sunflower; conditions: in vivo
Procedure: as §3

[4] = system: Homozygous resistant inbred lines, BC3-M4M12 (I), BC3-M4M11 (J) and BC3-M4M7 (K); experiment: Test A summary, homozygous resistant inbred lines; conditions: in vivo
Procedure: In a small field trial, the sunflower varieties described in Table 4 were sprayed post-emergence with a variety of sulfonylurea herbicide treatments.
Broadcast post-emergence applications of formulated sulfonylurea herbicides were performed at the 6-leaf development stage using four randomly distributed replications. Application rates were chosen to match the usual use rates of these herbicides in the crops they are registered in Europe. All herbicides except for metsulfuron-methyl were sprayed in combination with Citowet® non-ionic ethoxylated alcohol at 0.25% volume of formulated product per volume of water applied per hectare.
The evaluation of the maximum (i.e. peak) injury to sunflower varieties by sulfonylurea herbicides was measured by visual ratings, which are listed in Table 5. A rating of 0% phytotoxicity means no crop injury. […] A rating of 100% means the complete destruction of all plants.

[5] = system: homozygous progeny of the three mutant sources; type: in vivo, sunflower; conditions: Test B application rates, post-emergence
Procedure: as §3

M5M12 = experiment: Test B greenhouse phytotoxicity, M5M12; type: in vivo, sunflower; conditions: in vivo
Procedure: as §3

BC4-M5M11 = experiment: Test B greenhouse phytotoxicity, BC4-M5M11; type: in vivo, sunflower; conditions: in vivo
Procedure: as §3

[6] = system: H89A × RHA274 (sulfonylurea-susceptible hybrid); experiment: Test G control of volunteer sunflower, H89A × RHA274; type: in vivo; conditions: rated 4 weeks after application, scale 0-100
BC2-M3M12 = experiment: Test G control of volunteer sunflower, BC2-M3M12; type: in vivo; conditions: rated 4 weeks after application, scale 0-100
BC2-M3M11 = experiment: Test G control of volunteer sunflower, BC2-M3M11; type: in vivo; conditions: rated 4 weeks after application, scale 0-100
[7] = system: mutants originating from M11 and M12; conditions: tribenuron-methyl up to 60 g a.i./ha; others at Test G rates
Text: This test involved sulfonylurea-resistant sunflower progeny BC2-M3M11 and BC2-M3M12, derived from M11 and M12, respectively. Also, a sulfonylurea-susceptible hybrid, H89A×RHA274, was included for comparison. Plants were sprayed with formulated herbicides at the 4-leaf stage. The efficacy of the treatments on the sunflowers was visually rated 4 weeks after application, using a scale where 0 means no control of the sunflowers, 85 means sufficient efficacy level to stop plants from flowering and propagating, and 100 means a complete destruction of the mutants.
Weed control in sugar beet requires 2-3 herbicide applications per season to efficiently control weeds in this slow growing crop.

[8] = system: ALS enzymes of the mutant lines selected with thifensulfuron-methyl; experiment: ALS activity of mutant lines relative to wild-type H89B; type: biochemical, sunflower; conditions: in the presence of thifensulfuron-methyl

CCS(=O)(=O)c1cccnc1S(=O)(=O)NC(=O)Nc1nc(OC)cc(OC)n1 [Rimsulfuron, rimsulfuron]
Maximum Phytotoxicity ([1]; 15 g a.i./ha post-emergence): 100% | Maximum Phytotoxicity ([1]; 30 g a.i./ha post-emergence): 100% | Maximum Phytotoxicity (H89A × M4M11; 15 g a.i./ha post-emergence): 98% | Maximum Phytotoxicity (H89A × M4M11; 30 g a.i./ha post-emergence): 100% | Maximum Phytotoxicity (H89A × M4M12; 15 g a.i./ha post-emergence): 98% | Maximum Phytotoxicity (H89A × M4M12; 30 g a.i./ha post-emergence): 100% | Maximum Phytotoxicity ([2]; 15 g a.i./ha post-emergence): 100% | Maximum Phytotoxicity ([2]; 30 g a.i./ha post-emergence): 100% | Maximum Phytotoxicity (H89A × M4M7; 15 g a.i./ha post-emergence): 96% | Maximum Phytotoxicity (H89A × M4M7; 30 g a.i./ha post-emergence): 100% | tolerance of M11 ('M11'): not tolerant | ALS activity retained relative to wild-type ALS from H89B [3]: 4-6 times | Maximum Phytotoxicity (M5M7): 52.5% | Maximum Phytotoxicity (M5M11): 65% | Maximum Phytotoxicity (BC4-M5M7): 45% | Maximum Phytotoxicity (BC4-M5M12): 65% | tolerance of homozygous resistant inbred lines I, J, K [4]: as susceptible as the standards | tolerance of the mutants [5]: somewhat sensitive | Maximum Phytotoxicity (M5M12): 55% | Maximum Phytotoxicity (BC4-M5M11): 47.5%

COC(=O)c1sccc1S(=O)(=O)NC(=O)Nc1nc(C)nc(OC)n1 [Thifensulfuron-methyl, thifensulfuron-methyl]
Maximum Phytotoxicity ([1]; 35 g a.i./ha post-emergence): 100% | Maximum Phytotoxicity ([1]; 70 g a.i./ha post-emergence): 99% | Maximum Phytotoxicity (H89A × M4M11; 35 g a.i./ha post-emergence): 81% | Maximum Phytotoxicity (H89A × M4M11; 70 g a.i./ha post-emergence): 90% | Maximum Phytotoxicity (H89A × M4M12; 35 g a.i./ha post-emergence): 78% | Maximum Phytotoxicity (H89A × M4M12; 70 g a.i./ha post-emergence): 89% | Maximum Phytotoxicity ([2]; 35 g a.i./ha post-emergence): 100% | Maximum Phytotoxicity ([2]; 70 g a.i./ha post-emergence): 100% | Maximum Phytotoxicity (H89A × M4M7; 35 g a.i./ha post-emergence): 80% | Maximum Phytotoxicity (H89A × M4M7; 70 g a.i./ha post-emergence): 90% | Efficacy on H89A × RHA274 ([6]; 10 g a.i./ha, 4-leaf stage): 100 | Efficacy on H89A × RHA274 ([6]; 20 g a.i./ha): 100 | Efficacy on H89A × RHA274 ([6]; 40 g a.i./ha): 100 | Efficacy on H89A × RHA274 ([6]; 60 g a.i./ha): 100 | Efficacy on BC2-M3M12 (BC2-M3M12; 10 g a.i./ha): 10 | Efficacy on BC2-M3M12 (BC2-M3M12; 20 g a.i./ha): 16 | Efficacy on BC2-M3M12 (BC2-M3M12; 40 g a.i./ha): 32 | Efficacy on BC2-M3M12 (BC2-M3M12; 60 g a.i./ha): 58 | Efficacy on BC2-M3M11 (BC2-M3M11; 10 g a.i./ha): 2 | Efficacy on BC2-M3M11 (BC2-M3M11; 20 g a.i./ha): 17 | Efficacy on BC2-M3M11 (BC2-M3M11; 40 g a.i./ha): 50 | Efficacy on BC2-M3M11 (BC2-M3M11; 60 g a.i./ha): 74 | tolerance of homozygous resistant inbred lines I, J, K [4]: less susceptible than the standards | tolerance of homozygous resistant lines compared with heterozygous hybrids [4]: the homozygous resistant lines were more tolerant | resistance/tolerance of the mutants [7]: to a lesser extent than with tribenuron-methyl | ALS activity retained relative to wild-type ALS from H89B [8]: 2-6 times
